ChEMBL document CHEMBL6177948, “Discovery of potential Leonurine-based therapeutic lead MJ210 attenuates Parkinson's disease pathogenesis via NF-κB and MAPK pathways: Mechanistic insights from in vitro and in vivo rotenone models” (Eur J Med Chem, 2025)
Calls of active or inactive are those of the source. No cut-off for these calls is given here.

How the values were obtained:
[1] = tested on: Rattus norvegicus; experiment: Anti-parkinson activity in rotenone-induced neurodegeneration in male Wistar rat model assessed as decrease neuronal damage in striatum at 5 mg/kg, ip pretreated with compound every alternative days followed by rotenone addition and measured after 42 days by Nissl staining based analysis; assay type: functional, organism-based; conditions: time 42.0 day
[2] = tested on: Rattus norvegicus; experiment: In vivo inhibition of MAPK signaling pathway in rotenone-induced parkinson disease male Wistar rat model assessed as reduction in P-38 phosphorylation level in substantia nigra at 5 mg/kg, ip pretreated with compound every alternative days followed by rotenone addition and measured after 42 days by Western blotting analysis; assay type: functional, organism-based; conditions: time 42.0 day
[3] = tested on: SH-SY5Y; experiment: Reversal of rotenone-induced mitochondrial membrane depolarization in human SH-SY5Y cells assessed as increase in aggregates to monomer ratio at 5 uM preincubated with compound for 24 hrs followed by rotenone addition and measured after 24 hrs by JC-10 based fluorescence microscopic analysis; assay type: functional, cell-based; conditions: time 48.0 hrs
[4] = Stability in human serum assessed as compound remaining measured after 96 hrs by RP-HPLC analysis relative to control; assay type: ADME, cell-free; conditions: read-out: Stability
[5] = tested on: SH-SY5Y; experiment: Anti-inflammatory activity in rotenone-induced human SH-SY5Y cells assessed as reduction in IL-6 expression by Western blotting analysis; assay type: functional, cell-based
[6] = tested on: Rattus norvegicus; experiment: Anti-inflammatory activity in rotenone-induced male Wistar rat model assessed as reduction in phosphorylated NF-kappaB P65 protein expression level in substantia nigra at 5 mg/kg, ip pretreated with compound every alternative days followed by rotenone addition and measured after 42 days by ELISA; assay type: functional, organism-based; conditions: time 42.0 day
[7] = tested on: Rattus norvegicus; experiment: Anti-parkinson activity in rotenone-induced male Wistar rat model assessed as decrease in fall time at 5 mg/kg, ip pretreated with compound every alternative days followed by rotenone addition and measured after 42 days by inverted grid test; assay type: functional, organism-based; conditions: time 42.0 day
[8] = tested on: SH-SY5Y; experiment: Anti-inflammatory activity against rotenone-induced human SH-SY5Y cells assessed as reduction in CoX-2 mRNA expression level by RT-qPCR analysis; assay type: functional, cell-based
[9] = Toxicity in male Wistar rat assessed as change in heart morphology at 1 to 10 mg/kg by H and E staining based analysis; assay type: organism-based; conditions: in vivo, dose 1-10 mg/kg
[10] = tested on: Rattus norvegicus; experiment: Anti-parkinson activity in rotenone-induced neurodegeneration in male Wistar rat model assessed as minimal neuronal loss in cortex at 5 mg/kg, ip pretreated with compound every alternative days followed by rotenone addition and measured after 42 days by H and E staining based analysis; assay type: functional, organism-based; conditions: time 42.0 day
[11] = tested on: Rattus norvegicus; experiment: In vivo inhibition of MAPK signaling pathway in rotenone-induced parkinson disease male Wistar rat model assessed as reduction in JNK phosphorylation level in striatum at 5 mg/kg, ip pretreated with compound every alternative days followed by rotenone addition and measured after 42 days by Western blotting analysis; assay type: functional, organism-based; conditions: time 42.0 day
[12] = tested on: Rattus norvegicus; experiment: In vivo inhibition of MAPK signaling pathway in rotenone-induced parkinson disease male Wistar rat model assessed as reduction in P-38 phosphorylation level in striatum at 5 mg/kg, ip pretreated with compound every alternative days followed by rotenone addition and measured after 42 days by Western blotting analysis; assay type: functional, organism-based; conditions: time 42.0 day
[13] = tested on: SH-SY5Y; experiment: Neuroprotective activity against rotenone-induced mitochondrial ROS generation in human SH-SY5Y cells assessed as decrease in ROS level at 5 uM preincubated with compound for 24 hrs followed by rotenone addition and measured after 24 hrs by […] fluorescence microscopic analysis; assay type: functional, cell-based; conditions: time 48.0 hrs
[14] = tested on: Rattus norvegicus; experiment: Anti-parkinson activity in rotenone-induced neurodegeneration in male Wistar rat model assessed as reduction in pyknotic neurons in substantia nigra at 5 mg/kg, ip pretreated with compound every alternative days followed by rotenone addition and measured after 42 days by Nissl staining based analysis; assay type: functional, organism-based; conditions: time 42.0 day
[15] = tested on: SH-SY5Y; experiment: Anti-apoptotic activity in rotenone-induced human SH-SY5Y cells assessed as reduction in Bax expression by Western blotting analysis; assay type: functional, cell-based
[16] = tested on: SH-SY5Y; experiment: Neuroprotective activity against rotenone-induced mitochondrial ROS generation in human SH-SY5Y cells assessed as decrease in ROS level at 5 uM preincubated with compound for 24 hrs followed by rotenone addition and measured after 24 hrs by MitoSOX red staining based fluorescence microscopic analysis; assay type: functional, cell-based; conditions: time 48.0 hrs
[17] = tested on: Rattus norvegicus; experiment: Anti-inflammatory activity in rotenone-induced male Wistar rat model assessed as reduction in COX2 expression level in substantia nigra at 5 mg/kg, ip pretreated with compound every alternative days followed by rotenone addition and measured after 42 days by ELISA; assay type: functional, organism-based; conditions: time 42.0 day
[18] = tested on: Rattus norvegicus; experiment: Anti-parkinson activity in rotenone-induced male Wistar rat assessed as increase in TH positive fiber density in […] at 5 mg/kg, ip pretreated with compound every alternative days followed by rotenone addition and measured after 42 days by immunofluorescence staining based analysis; assay type: functional, organism-based; conditions: time 42.0 day
[19] = tested on: Rattus norvegicus; experiment: Anti-parkinson activity in rotenone-induced male Wistar rat model assessed as reduction in rotenone-induced behavioral impairment by measuring time in central zone at 5 mg/kg, ip pretreated with compound every alternative days followed by rotenone addition and measured after 42 days by open field test; assay type: functional, organism-based; conditions: time 42.0 day
[20] = tested on: Rattus norvegicus; experiment: Anti-parkinson activity in rotenone-induced male Wistar rat model assessed as increase in cage lid hold time at 5 mg/kg, ip pretreated with compound every alternative days followed by rotenone addition and measured after 42 days by inverted grid test; assay type: functional, organism-based; conditions: time 42.0 day
[21] = Drug excretion in male Wistar rat brain at 50 mg/kg, ip measured after 4.25 hrs; assay type: ADME, organism-based; conditions: in vivo
[22] = Toxicity in male Wistar rat assessed as change in spleen morphology at 1 to 10 mg/kg by H and E staining based analysis; assay type: organism-based; conditions: in vivo, dose 1-10 mg/kg
[23] = Toxicity in male Wistar rat assessed as change in liver morphology at 1 to 10 mg/kg by H and E staining based analysis; assay type: organism-based; conditions: in vivo, dose 1-10 mg/kg
[24] = tested on: Rattus norvegicus; experiment: Anti-parkinson activity in rotenone-induced neurodegeneration in male Wistar rat model assessed as decrease neuronal damage in cortex at 5 mg/kg, ip pretreated with compound every alternative days followed by rotenone addition and measured after 42 days by Nissl staining based analysis; assay type: functional, organism-based; conditions: time 42.0 day
[25] = tested on: Rattus norvegicus; experiment: Anti-parkinson activity in rotenone-induced male Wistar rat model assessed as improvement in t-total metrics at 5 mg/kg, ip pretreated with compound every alternative days followed by rotenone addition and measured after 42 days by pole test; assay type: functional, organism-based; conditions: time 42.0 day
[26] = tested on: Rattus norvegicus; experiment: Anti-parkinson activity in rotenone-induced neurodegeneration in male Wistar rat model assessed as reduced edema in cortex at 5 mg/kg, ip pretreated with compound every alternative days followed by rotenone addition and measured after 42 days by H and E staining based analysis; assay type: functional, organism-based; conditions: time 42.0 day
[27] = tested on: Rattus norvegicus; experiment: Anti-parkinson activity in rotenone-induced neurodegeneration in male Wistar rat model assessed as reduction in necrosis in striatum at 5 mg/kg, ip pretreated with compound every alternative days followed by rotenone addition and measured after 42 days by Nissl staining based analysis; assay type: functional, organism-based; conditions: time 42.0 day
[28] = tested on: Rattus norvegicus; experiment: Anti-inflammatory activity in rotenone-induced male Wistar rat model assessed as reduction in PGE2 expression level in substantia nigra at 5 mg/kg, ip pretreated with compound every alternative days followed by rotenone addition and measured after 42 days by ELISA; assay type: functional, organism-based; conditions: time 42.0 day
[29] = tested on: Rattus norvegicus; experiment: In vivo inhibition of MAPK signaling pathway in rotenone-induced parkinson disease male Wistar rat model assessed as reduction in JNK phosphorylation level in substantia nigra at 5 mg/kg, ip pretreated with compound every alternative days followed by rotenone addition and measured after 42 days by Western blotting analysis; assay type: functional, organism-based; conditions: time 42.0 day
[30] = tested on: SH-SY5Y; experiment: Neuroprotective activity against rotenone-induced mitochondrial morphological changes in human SH-SY5Y cells assessed as filamentous mitochondrial shape at 5 uM preincubated with compound for 24 hrs followed by rotenone addition and measured after 24 hrs by Mito Tracker staining based fluorescence microscopic analysis; assay type: functional, cell-based; conditions: time 48.0 hrs

Q: For `COc1cc(CCC(=O)N2CCCCC2)cc(OC)c1OC(=O)c1ccccn1`, which Activity [1] is on record?
A: The Activity was “Active”.

Q: And the inhibition [2]?
A: Its inhibition is “Active”.

Q: What about the Activity [3] of the same molecule?
A: Its Activity is “Active”.

Q: And the remaining at 96 h [4]?
A: The remaining at 96 h was 86%.

Q: And the Activity [5]?
A: The Activity was “Active”.

Q: And the Activity [6]?
A: The Activity was “Active”.

Q: What about the Activity [7] of the same molecule?
A: Its Activity is “Active”.

Q: What about the Activity [8] of the same molecule?
A: The Activity was “Active”.

Q: What about the Activity [9] of the same molecule?
A: The Activity was “Non-toxic”.

Q: And the Activity [10]?
A: Its Activity is “Active”.

Q: What about the inhibition [11] of the same molecule?
A: The inhibition was “Active”.

Q: What about the inhibition [12] of the same molecule?
A: Its inhibition is “Active”.

Q: And the Activity [13]?
A: Its Activity is “Active”.

Q: And the Activity [14]?
A: The Activity was “Active”.

Q: And the Activity [15]?
A: The Activity was “Active”.

Q: What about the Activity [16] of the same molecule?
A: Its Activity is “Active”.

Q: What about the Activity [17] of the same molecule?
A: Its Activity is “Active”.

Q: And the Activity [18]?
A: Its Activity is “Active”.

Q: And the Activity [19]?
A: The Activity was “Active”.

Q: What about the Activity [20] of the same molecule?
A: The Activity was “Active”.

Q: What about the Drug excretion [21] of the same molecule?
A: Its Drug excretion is “Active”.

Q: And the Activity [22]?
A: The Activity was “Non-toxic”.

Q: And the Activity [23]?
A: The Activity was “Non-toxic”.

Q: And the Activity [24]?
A: Its Activity is “Active”.

Q: What about the Activity [25] of the same molecule?
A: The Activity was “Active”.

Q: And the Activity [26]?
A: Its Activity is “Active”.

Q: What about the Activity [27] of the same molecule?
A: The Activity was “Active”.

Q: What about the Activity [28] of the same molecule?
A: The Activity was “Active”.

Q: What about the inhibition [29] of the same molecule?
A: The inhibition was “Active”.

Q: And the Activity [30]?
A: The Activity was “Active”.
